Test results taken from US20130337579A1, “Methods for Determining Protein Ligand Binding” (UNIVERSITY OF MARYLAND, COLLEGE PARK, priority 2010, published 2013).
pKd: −log10 of the molar value.

How the values were obtained:
[1] = system: lysates from various organisms or tissues; assay: DRaCALA analysis of cdiGMP binding by lysates from various organisms or tissues
[2] = system: PelD; assay: DRaCALA of whole cell lysates of E. coli BL21(DE3) expressing PelD; assay type: binding, P. aeruginosa; conditions: PelD with or without MBP tag
Experimental: FIG. 10. Binding of cdiGMP to whole cell lysates expressing soluble or insoluble cdiGMP binding proteins. (A) BL21(DE3) cells expressing the indicated proteins were analyzed by PAGE and coomassie staining of whole cell (W) and soluble (S) fractions. Arrows indicate the overexpressed protein of the correct molecular weight in whole cell lysates. Molecular weights of proteins are indicated on the left in kilodaltons. (B) Spots of BL21 cells overexpressing the indicated proteins were assayed for cdiGMP binding by DRaCALA. (C) Quantification of the data shown in (B). (D) Binding of ^32P-cdiGMP to various dilutions of lysates of BL21(DE3) cells expressing the indicated proteins.
A major limitation of most biochemical assays is the requirement for purified protein. We asked whether DRaCALA could be applied to crude extracts to overcome this limitation. Alg44PilZ binding to cdiGMP requires a number of conserved residues, including R17, R21, D44 and S46, in the PilZ domain of the protein. E. coli BL21(DE3) expressing Alg44PilZ and variants with R21A, D44A, S46A, and R17A/R21A substitutions were lysed and tested for binding to cdiGMP using DRaCALA. […] A significant difference between the bound fractions for cdiGMP or GTP competition experiments was detected for the wild-type Alg44PilZ, but not for the PilZ domain mutants (FIGS. 4A and 4B). […]

[3] = target: Vc2* riboswitch RNA; assay: DRaCALA of cdiGMP binding to biotinylated Vc2* RNA immobilized by streptavidin; conditions: Vc2*-biotin RNA diluted, 4 nM 32P-cdiGMP
Experimental: FIG. 19. Vc2* RNA binding to ^32P-cdiGMP is detected by DRaCALA. (A) Spots visualized by phosphorimager with streptavidin used to immobilize biotinylated RNA. The binding reaction contained 4 nM ^32P-cdiGMP, 1 μM RNA, and 200 nM streptavidin in buffer (10 mM KCl, 10 mM sodium cacodylate, 3 mM MgCl2). (B) The affinity of Vc2*-biotin RNA for cdiGMP was determined with both EMSA and DRaCALA by diluting RNA in the binding reaction. The fraction bound is normalized such that 1.0 represents maximal binding.
We have shown that protein interaction with DNA can be detected by DRaCALA. We wondered if the principle of DRaCALA would also apply to ribonucleic acids. In particular, can the DRaCALA technology be used to detect the interaction of riboswitches with their small molecule ligands. One example of such an interaction that has been of recent interest is the cdiGMP responsive Vc2 riboswitch identified in bacteria. To study such an interaction with DRaCALA, one of the binding partners must be immobilized. […] The biotinylated riboswitch was sequestered by streptavidin, allowing the nucleic acid to take the place of protein as the immobile partner in the binding assay. Vc2* was tested directly for sequestration of cdiGMP and also biotinylated and tested for binding to cdiGMP in the presence or absence of streptavidin. […]

[4] = target: E. coli NtrB (Escherichia coli, UniProt P0AFB5); assay: DRaCALA binding of radiolabeled nucleotides to purified NtrB; conditions: 20 μM purified protein; 500 nM 14C-cAMP, 4 nM 32P-ATP or 4 nM 32P-cdiGMP
Sequence of E. coli NtrB (P0AFB5 whole entry): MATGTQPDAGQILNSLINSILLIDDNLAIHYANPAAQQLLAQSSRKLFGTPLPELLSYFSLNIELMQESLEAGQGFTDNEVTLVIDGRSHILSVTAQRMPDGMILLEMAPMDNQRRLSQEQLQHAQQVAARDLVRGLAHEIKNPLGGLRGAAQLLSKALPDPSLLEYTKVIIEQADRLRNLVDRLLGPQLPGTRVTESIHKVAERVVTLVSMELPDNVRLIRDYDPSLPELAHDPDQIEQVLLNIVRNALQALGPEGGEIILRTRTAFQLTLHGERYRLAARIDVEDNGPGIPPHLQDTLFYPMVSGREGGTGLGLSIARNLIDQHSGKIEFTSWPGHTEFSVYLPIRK
Experimental: (§1) Radiolabeled ligands were incubated with each of the proteins and the mixtures were spotted on nitrocellulose. After spreading by capillary action, membranes were dried and quantitated by phosphorimager. […] The specificity of Alg44PilZ binding to cdiGMP was further tested by competition with excess unlabeled nucleotides (400-fold molar excess relative to the Alg44PilZ protein).
Protein or whole cell lysates in 1× cdiGMP binding buffer (20 μl) was mixed with 4 nM of radiolabeled nucleotide and allowed to incubate for 10 minutes at room temperature. Radiolabeled nucleotide was competed away by cold nucleotides in concentrations and for times indicated. Purified proteins were tested in technical replicates. Whole cell lysates in FIG. 4 and FIG. 12 were tested in biological triplicates. Whole cell lysates in FIG. 5 were tested in technical replicates. These mixtures were pipetted (2.5-5 μl) onto dry, untreated nitrocellulose (GE Healthcare) in triplicate and allowed to dry completely before quantification. An FLA7100 Fujifilm Life Science Phosphorimager was used to detect luminescence following a 5-minute exposure of blotted nitrocellulose to phosphorimager film. Data was quantified using Fujifilm Multi Gauge software v3.0.

[5] = target: Maltose binding protein (MBP) (Escherichia coli, UniProt P0AEX9); conditions: whole-cell lysate, 8 nM 32P-cdiGMP
Experimental: as §1

[6] = target: T1, Alg44PilZ (Pseudomonas aeruginosa, UniProt Q9HY69); conditions: previously determined by ITC (Merighi 2007); cited from earlier work
T1 construct: Previous studies of the dissociation rate of cdiGMP from Alg44PilZ
T1 sequence (Q9HY69 16-116): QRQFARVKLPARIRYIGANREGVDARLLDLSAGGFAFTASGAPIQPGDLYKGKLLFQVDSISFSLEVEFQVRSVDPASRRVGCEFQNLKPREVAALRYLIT

[7] = system: whole-cell lysates of P. aeruginosa strains; assay: DRaCALA analysis of cdiGMP binding by whole-cell lysates of P. aeruginosa strains

Question: Which “BC (non-specific binding)” value ([1]; mammalian tissue extracts from rodent and human cell lines) does the source give for `Nc1nc2c(ncn2[C@@H]2O[C@@H]3CO[P@](=O)(O)O[C@H]4[C@@H](O)[C@H](n5cnc6c(=O)[nH]c(N)nc65)O[C@@H]4CO[P@](=O)(O)O[C@H]3[C@H]2O)c(=O)[nH]1` [cdiGMP, cyclic-di-GMP] here?
Answer: The value was > 0.233.

Question: What about the BSp ([1]; whole cell extracts of protozoa, fungi and nematodes) of the same molecule?
Answer: Its BSp is “below 1.17”.

Question: What about the “specific sequestration by whole cell extracts with soluble or insoluble protein” value [2] of the same molecule?
Answer: Its value is “specifically sequester”.

Question: And the pKd [3]?
Answer: Its pKd is 8.11.

Question: And the “binding to NtrB (sequestration of radiolabel signal)” value [4]?
Answer: Its value is “not”.

Question: And the “binding by protein extracts from E. coli expressing MBP alone” value [5]?
Answer: Its value is “did not bind”.

Question: What about the pKd [6] of the same molecule?
Answer: Its pKd is 5.25.

Question: And the BSp ([7]; PA14 overexpressing diguanylate cyclase WspR)?
Answer: Its BSp is 1.19.

Question: What about the BSp ([7]; PA14 overexpressing phosphodiesterase RocR) of the same molecule?
Answer: The BSp was 3.51.

Question: And the BSp ([7]; PA14ΔpelD overexpressing RocR)?
Answer: Its BSp is 2.70.

Question: And the “average BSp of strain groups isolated from different sources” value ([7]; all groups)?
Answer: Its value is “greater than 1.48”.

Question: What about the “Average Bc” value ([7]; average over all P. aeruginosa lysates of the table) of the same molecule?
Answer: The value was 0.185.

Question: And the BSp ([7]; wild-type PA14 extract)?
Answer: The BSp was 1.27.
